{
  "source": "paper PMC12150283",
  "about": "“Synthesis of new Ag(I) and Cd(II) hydrozanomide-based complexes with antibacterial and anticancer properties” (RSC Advances, 2025)",
  "key": {"S. aureus ATCC 25923": {"tested_on": "S. aureus ATCC 25923", "experiment": "Diffusion-well method, inhibition zones", "format": "cell-based, Staphylococcus aureus", "details": "500 µg/mL, wells 10 mm", "description": "(§1) The antibacterial activity of tested samples was assessed against both gram-positive bacteria (Staphylococcus aureus ATCC 25923, Staphylococcus aureus ATCC 6538, Staphylococcus epidermidis ATCC 12228, Enterococcus faecalis ATCC 29212, Listeria monocytogenes ATCC 19115, Bacillus subtilis ATCC 6633, Bacillus cereus ATCC 10876) and gram-negative bacteria (Escherichia coli ATCC 10530, Salmonella typhimurium ATCC 14028). Antibacterial properties were evaluated using both the dilution method (employing DMSO and 96-well plates) and the diffusion-well method (using Mueller Hinton Agar, Merck, Germany).\n(§2) 24 hour bacterial cultures with a density of 1–2 × 10^8 CFU mL^−1 were plated (0.1 mL) on Mueller–Hinton Agar (Merck, Germany). Subsequently, wells with a diameter of 10 mm were cut out from and filled with 100 μL of the tested compound at a concentration of 10–500 μg mL^−1 (diluted in DMSO). After an 18-hour incubation at either 30 °C (for Bacillus ssp.) or 37 °C (for other tested microorganisms), the inhibition zones around the wells were measured, and the results were expressed in millimetres (Table S9 ^†)."}, "S. aureus ATCC 6538": {"tested_on": "S. aureus ATCC 6538", "experiment": "Diffusion-well method, inhibition zones", "format": "cell-based, Staphylococcus aureus", "details": "500 µg/mL, wells 10 mm", "description": "as §1, §2"}, "[1]": {"tested_on": "S. epidermidis ATCC 12228", "experiment": "Diffusion-well method, inhibition zones", "format": "cell-based, Staphylococcus epidermidis", "details": "500 µg/mL, wells 10 mm", "description": "as §1, §2"}, "E. faecalis ATCC 29212": {"tested_on": "E. faecalis ATCC 29212", "experiment": "Diffusion-well method, inhibition zones", "format": "cell-based, Enterococcus faecalis", "details": "500 µg/mL, wells 10 mm", "description": "as §1, §2"}, "B. cereus ŁOCK 0807": {"tested_on": "B. cereus ŁOCK 0807", "experiment": "Diffusion-well method, inhibition zones", "format": "cell-based, Bacillus cereus", "details": "500 µg/mL, wells 10 mm"}, "B. subtilis ATCC 6633": {"tested_on": "B. subtilis ATCC 6633", "experiment": "Diffusion-well method, inhibition zones", "format": "cell-based, Bacillus subtilis", "details": "500 µg/mL, wells 10 mm", "description": "as §1, §2"}, "E. coli ATCC 10530": {"tested_on": "E. coli ATCC 10530", "experiment": "Diffusion-well method, inhibition zones", "format": "cell-based, Escherichia coli", "details": "500 µg/mL, wells 10 mm", "description": "as §1, §2"}, "[2]": {"tested_on": "glioblastoma LN-229 cells", "experiment": "MTT cell viability assay", "format": "cell-based, human", "details": "48 hours of incubation", "description": "(§3) The glioblastoma cell lines LN-229 and U87 and the reference human normal skin fibroblast BJ were obtained from the American Type Culture Collection (ATCC). Cells were grown as monolayers when cultured in cell culture flasks and cultured in Dulbecco's Modified Eagle Medium (DMEM) – LN-229 and Eagle's Minimum Essential Medium (EMEM) – U87 and BJ, supplemented with 10% (v/v) fetal bovine serum, penicillin (10 000 U mL^−1), streptomycin (10 mg mL^−1) and amphotericin B (250 μg mL^−1). The cells were incubated at 37 °C, 5% CO2 atmosphere. The cells were maintained in the logarithmic growth phase by regular passage at 80% confluence.\n(§4) The cytotoxicity of the tested compounds was evaluated against both human glioblastoma LN-229 and U-87 as well as normal BJ cell lines. The cells were plated in 96-well culture plates (2 × 10^4 well) and after 24 h incubation the cells were treated with the tested compounds in the concentration range 1–50 μM. The cells were cultured for the next 48 h. The cytotoxicity of the compounds was evaluated using the MTT colorimetric method as previously described.[28,29] IC50 values were determined using the AAT Bioquest IC50 calculator as the concentration of compounds capable of reducing cell viability by 50%. The experiment was performed in triplicate for each concentration. To examine the cytotoxic effect of compounds on cell morphology, cells were examined under an inverted phase contrast microscope Nikon Eclipse Ti with NIS Element software (Tokyo, Japan)."}, "glioblastoma U87 cells": {"tested_on": "glioblastoma U87 cells", "experiment": "MTT cell viability assay", "format": "cell-based, human", "details": "48 hours of incubation", "description": "as §3, §4"}, "[3]": {"tested_on": "normal skin fibroblast BJ cells", "experiment": "MTT cell viability assay", "format": "cell-based, human", "details": "BJ normal fibroblasts; 48 hours of incubation", "description": "as §3, §4"}, "[4]": {"experiment": "Time-dependent UV-vis solution stability in DMSO", "format": "physicochemical", "details": "0 min to 48 h, room temperature", "excerpt": "The stability of metal complexes is a crucial property that provides insight into their interactions with biological molecules, as it directly impacts their reactivity, bioavailability, and effectiveness in therapeutic applications. Additionally, the solubility of these complexes in dimethyl sulfoxide (DMSO) is of considerable importance, as solubility data are essential for optimizing storage conditions and ensuring compatibility with biological assays.[39] DMSO, a widely used solvent in drug discovery, serves as a medium that supports the stability and bioavailability of complexes under assay conditions, which is critical for maintaining the integrity of analytical protocols and enabling accurate assessments of biological activity. For the obtained complexes, the time-dependent UV-vis investigations in DMSO (Fig. 5 and S9 ^†) were carried out from 0 min to 48 h (0 min, 30 min, 1 h, 2 h, 3 h, 24 h, 48 h).\nThe sample solutions (50 μL (1.0 × 10^−3 M)) of the complexes were prepared in DMSO (Sigma Aldrich, ≥99.9%). The absorption spectra of the complexes were measured with increasing time (0 min, 30 min, 60 min, 2 h, 3 h, 24 h, 48 h) at room temperature. All measurements were performed on the Shimadzu UV-2401PC."}},
  "data": [
    {"molecule": "NC(=NN=Cc1ccccc1)c1cncc(Cl)n1.O.O=[N+]([O-])[O-].[Ag+]", "note": "[Complex 1, AgL1NO3 × H2O]", "values": [
      {"measurement": "Inhibition zone", "setting": "S. aureus ATCC 25923", "result": 20, "unit": "mm"},
      {"measurement": "Inhibition zone", "setting": "S. aureus ATCC 6538", "result": 16, "unit": "mm"},
      {"measurement": "Inhibition zone", "setting": "[1]", "result": 18, "unit": "mm"},
      {"measurement": "Inhibition zone", "setting": "E. faecalis ATCC 29212", "result": 17, "unit": "mm"},
      {"measurement": "Inhibition zone", "setting": "B. cereus ŁOCK 0807", "result": 17, "unit": "mm"},
      {"measurement": "Inhibition zone", "setting": "B. subtilis ATCC 6633", "result": 17, "unit": "mm"},
      {"measurement": "Inhibition zone", "setting": "E. coli ATCC 10530", "result": 20, "unit": "mm"},
      {"measurement": "IC50", "setting": "[2]", "result": "25.2 ± 3.75", "unit": "µM"},
      {"measurement": "IC50", "setting": "glioblastoma U87 cells", "result": "8.15 ± 2.67", "unit": "µM"},
      {"measurement": "IC50", "setting": "[3]", "result": "20.5 ± 5.21", "unit": "µM"},
      {"measurement": "hypochromic effect", "setting": "[4]", "result": 0.84, "unit": "%"}
    ]}
  ]
}
